Several values for one entry are separate records, joined by “and”; a condition that tells them apart may be missing. Equal values may be shown once.
How the values were obtained:
Assay type in all cases: cell-based
[1] = system: Salmonella typhimurium TA1537; assay: Ames test (reverse mutation test), TA1537
Procedure: (§1) The solvent used herein was dimethyl sulfoxide (DMSO, 100 µL/plate).
(§2) The mixtures were preincubated at 37° C. for 20 minutes while shaking. […] Two plates per treatment were used.

[2] = system: Salmonella typhimurium TA100; assay: Ames test (reverse mutation test), TA100
Procedure: as §1, §2

[3] = system: Salmonella typhimurium TA98; assay: Ames test (reverse mutation test), TA98
Procedure: as §1, §2

[4] = system: Escherichia coli WP2uvrA; assay: Ames test (reverse mutation test), WP2uvrA; conditions: WP2uvrA
Procedure: as §1, §2

[5] = system: Salmonella typhimurium TA1535; assay: Ames test (reverse mutation test), TA1535
Procedure: as §1, §2

COc1ccc2nc3cc(Cl)ccc3c(NCCCNCCCl)c2c1 [ICR-191]
Number of revertant colonies TA1537 ([1]; S9 Mix -, dose 1.0 µg/plate, positive control): 1448 and 1435 and 1413 and 1096 and 1397 | Number of revertant colonies ([1]; TA1537, -S9 mix, 1.0 µg/plate (positive control)): 1170 and 1131

CC(C)(C)Oc1cccc(-c2cc(N)nn2-c2ccccc2)c1 [Metabolite C]
Number of revertant colonies ([2]; TA100, +S9 mix, 2.34 µg/plate): 526 | Number of revertant colonies ([2]; TA100, +S9 mix, 4.69 µg/plate): 778 | Number of revertant colonies ([2]; TA100, +S9 mix, 9.38 µg/plate): 1210 | Number of revertant colonies ([2]; TA100, +S9 mix, 18.8 µg/plate): 1745 | Number of revertant colonies ([2]; TA100, +S9 mix, 37.5 µg/plate): 2049 | Number of revertant colonies ([2]; TA100, +S9 mix, 75 µg/plate): 2147 | Number of revertant colonies ([2]; TA100, +S9 mix, 150 µg/plate): 2043 | Number of revertant colonies ([2]; TA100, +S9 mix, 300 µg/plate): 1412 | Number of revertant colonies ([2]; TA100, -S9 mix, 2.3 µg/plate): 87 | Number of revertant colonies ([2]; TA100, -S9 mix, 6.9 µg/plate): 99 | Number of revertant colonies ([2]; TA100, -S9 mix, 21 µg/plate): 48 | Number of revertant colonies ([2]; TA100, -S9 mix, 62 µg/plate): 41 | Number of revertant colonies ([2]; TA100, -S9 mix, 185 µg/plate): 45 | Number of revertant colonies ([2]; TA100, -S9 mix, 556 µg/plate): 33 | Number of revertant colonies ([2]; TA100, -S9 mix, 1667 µg/plate): 25 | Number of revertant colonies ([2]; TA100, -S9 mix, 5000 µg/plate): 35 | potential to induce reverse mutations ([2]; TA100 with S9 mix): showed potential to induce reverse mutations | Number of revertant colonies ([3]; TA98, +S9 mix, 2.34 µg/plate): 38 | Number of revertant colonies ([3]; TA98, +S9 mix, 4.69 µg/plate): 36 | Number of revertant colonies ([3]; TA98, +S9 mix, 9.38 µg/plate): 73 | Number of revertant colonies ([3]; TA98, +S9 mix, 18.8 µg/plate): 107 | Number of revertant colonies ([3]; TA98, +S9 mix, 37.5 µg/plate): 133 | Number of revertant colonies ([3]; TA98, +S9 mix, 75 µg/plate): 153 | Number of revertant colonies ([3]; TA98, +S9 mix, 150 µg/plate): 133 | Number of revertant colonies ([3]; TA98, +S9 mix, 300 µg/plate): 138 | Number of revertant colonies ([3]; TA98, -S9 mix, 2.3 µg/plate): 14 | Number of revertant colonies ([3]; TA98, -S9 mix, 6.9 µg/plate): 15 | Number of revertant colonies ([3]; TA98, -S9 mix, 21 µg/plate): 17 | Number of revertant colonies ([3]; TA98, -S9 mix, 62 µg/plate): 8 | Number of revertant colonies ([3]; TA98, -S9 mix, 185 µg/plate): 8 | Number of revertant colonies ([3]; TA98, -S9 mix, 556 µg/plate): 8 | Number of revertant colonies ([3]; TA98, -S9 mix, 1667 µg/plate): 8 | Number of revertant colonies ([3]; TA98, -S9 mix, 5000 µg/plate): 0 | potential to induce reverse mutations ([3]; TA98 with S9 mix): showed potential to induce reverse mutations | Number of revertant colonies ([4]; +S9 mix, 2.3 µg/plate): 28 | Number of revertant colonies ([4]; +S9 mix, 6.9 µg/plate): 23 | Number of revertant colonies ([4]; +S9 mix, 21 µg/plate): 21 | Number of revertant colonies ([4]; +S9 mix, 62 µg/plate): 26 | Number of revertant colonies ([4]; +S9 mix, 185 µg/plate): 17 | Number of revertant colonies ([4]; +S9 mix, 556 µg/plate): 8 | Number of revertant colonies ([4]; +S9 mix, 1667 µg/plate): 12 | Number of revertant colonies ([4]; +S9 mix, 5000 µg/plate): 16 | Number of revertant colonies ([4]; -S9 mix, 2.3 µg/plate): 15 | Number of revertant colonies ([4]; -S9 mix, 6.9 µg/plate): 16 | Number of revertant colonies ([4]; -S9 mix, 21 µg/plate): 17 | Number of revertant colonies ([4]; -S9 mix, 62 µg/plate): 13 | Number of revertant colonies ([4]; -S9 mix, 185 µg/plate): 13 | Number of revertant colonies ([4]; -S9 mix, 556 µg/plate): 13 | Number of revertant colonies ([4]; -S9 mix, 1667 µg/plate): 10 | Number of revertant colonies ([4]; -S9 mix, 5000 µg/plate): 11 | Number of revertant colonies ([1]; TA1537, +S9 mix, 2.3 µg/plate): 6 | Number of revertant colonies ([1]; TA1537, +S9 mix, 6.9 µg/plate): 7 | Number of revertant colonies ([1]; TA1537, +S9 mix, 21 µg/plate): 7 | Number of revertant colonies ([1]; TA1537, +S9 mix, 62 µg/plate): 9 | Number of revertant colonies ([1]; TA1537, +S9 mix, 185 µg/plate): 9 | Number of revertant colonies ([1]; TA1537, +S9 mix, 556 µg/plate): 4 | Number of revertant colonies ([1]; TA1537, +S9 mix, 1667 µg/plate): 4 | Number of revertant colonies ([1]; TA1537, +S9 mix, 5000 µg/plate): 5 | Number of revertant colonies ([1]; TA1537, -S9 mix, 2.3 µg/plate): 3 | Number of revertant colonies ([1]; TA1537, -S9 mix, 6.9 µg/plate): 1 | Number of revertant colonies ([1]; TA1537, -S9 mix, 21 µg/plate): 3 | Number of revertant colonies ([1]; TA1537, -S9 mix, 62 µg/plate): 3 | Number of revertant colonies ([1]; TA1537, -S9 mix, 185 µg/plate): 2 | Number of revertant colonies ([1]; TA1537, -S9 mix, 556 µg/plate): 0 | Number of revertant colonies ([1]; TA1537, -S9 mix, 1667 µg/plate): 0 | Number of revertant colonies ([1]; TA1537, -S9 mix, 5000 µg/plate): 0 | Number of revertant colonies ([5]; TA1535, +S9 mix, 2.3 µg/plate): 8 | Number of revertant colonies ([5]; TA1535, +S9 mix, 6.9 µg/plate): 8 | Number of revertant colonies ([5]; TA1535, +S9 mix, 21 µg/plate): 5 | Number of revertant colonies ([5]; TA1535, +S9 mix, 62 µg/plate): 4 | Number of revertant colonies ([5]; TA1535, +S9 mix, 185 µg/plate): 5 | Number of revertant colonies ([5]; TA1535, +S9 mix, 556 µg/plate): 4 | Number of revertant colonies ([5]; TA1535, +S9 mix, 1667 µg/plate): 5 | Number of revertant colonies ([5]; TA1535, +S9 mix, 5000 µg/plate): 4 | Number of revertant colonies ([5]; TA1535, -S9 mix, 21 µg/plate): 6 | Number of revertant colonies ([5]; TA1535, -S9 mix, 556 µg/plate): 0

[N-]=[N+]=[N-].[Na+] [SA]
Number of revertant colonies ([5]; TA1535, -S9 mix, 0.5 µg/plate (positive control)): 217 and 222
